Key:
JAK1 = JAK1 (Homo sapiens (Human), UniProt P23458); experiment: Jak biochemical HTRF assay, JAK1; settings: HTRF biochemical assay, recombinant GST-tagged catalytic domain; read-out: JAK1 IC50
JAK2 = JAK2 (Homo sapiens (Human), UniProt O60674); experiment: Jak biochemical HTRF assay, JAK2; settings: HTRF biochemical assay, recombinant GST-tagged catalytic domain; read-out: JAK2 IC50
JAK2, sequence (O60674 849-1124): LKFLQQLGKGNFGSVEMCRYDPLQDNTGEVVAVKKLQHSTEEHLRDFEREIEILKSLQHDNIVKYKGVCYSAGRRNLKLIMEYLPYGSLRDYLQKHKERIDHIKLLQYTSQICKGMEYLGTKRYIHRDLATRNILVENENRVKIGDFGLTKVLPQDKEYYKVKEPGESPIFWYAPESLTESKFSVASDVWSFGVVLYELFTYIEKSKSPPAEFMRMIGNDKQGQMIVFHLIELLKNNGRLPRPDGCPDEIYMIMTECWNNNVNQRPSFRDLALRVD

JAK1, sequence (P23458 875-1153): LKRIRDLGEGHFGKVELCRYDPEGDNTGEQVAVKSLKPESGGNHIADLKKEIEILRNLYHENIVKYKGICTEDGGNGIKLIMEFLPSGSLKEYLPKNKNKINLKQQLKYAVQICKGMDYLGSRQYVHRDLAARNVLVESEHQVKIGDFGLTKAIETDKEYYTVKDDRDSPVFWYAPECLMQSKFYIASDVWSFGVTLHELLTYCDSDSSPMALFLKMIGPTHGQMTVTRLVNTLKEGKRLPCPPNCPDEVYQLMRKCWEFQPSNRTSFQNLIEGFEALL

Structure (SMILES) | IC50 (JAK1) | IC50 (JAK2)
CC(C)(C)[S@+]([O-])N[C@H](c1cccc(Nc2nn([C@H]3CCCC[C@@H]3C#N)c3cc[nH]c(=O)c23)c1)C(F)(F)F [Example 3-42, N-{(1R)-1-[3-({1-[(1S,2S)-2-cyanocyclohexyl]-4-oxo-4,5-dihydro-1H-pyrazolo[4,3-c]pyridin-3-yl}amino)phenyl]-2,2,2-trifluoroethyl}-2-methylpropane-2-sulfinamide] | 0.46 nM | 13 nM
N#C[C@H]1CCC[C@@H]1n1nc(Nc2ccc(C(O)C(F)(F)F)cc2)c2c(=O)[nH]ccc21 (stereo partly drawn) [Example 3-98, (1S,2S)-2-(4-oxo-3-{[4-(2,2,2-trifluoro-1-hydroxyethyl)phenyl]amino}-4,5-dihydro-1H-pyrazolo[4,3-c]pyridin-1-yl)cyclopentanecarbonitrile] | 0.075 nM | 0.53 nM
CCN1Cc2ccc(Nc3nn([C@H]4CCCC[C@@H]4C#N)c4cc[nH]c(=O)c34)cc2C1 [Example 3-76, (1S,2S)-2-{3-[(2-ethyl-2,3-dihydro-1H-isoindol-5-yl)amino]-4-oxo-4,5-dihydro-1H-pyrazolo[4,3-c]pyridin-1-yl}cyclohexanecarbonitrile] | 0.41 nM | 2.1 nM
CN(C(C)(C)C)S(=O)(=O)c1ccc(Nc2nn([C@H]3CCCC[C@@H]3C#N)c3cc[nH]c(=O)c23)cc1 [Example 3-142, N-tert-butyl-4-({1-[(1S,2S)-2-cyanocyclohexyl]-4-oxo-4,5-dihydro-1H-pyrazolo[4,3-c]pyridin-3-yl}amino)-N-methylbenzenesulfonamide] | 0.29 nM | 0.68 nM
N#C[C@H]1CCC[C@@H]1n1nc(Nc2ccc(C(N)C(F)(F)F)cc2)c2c(=O)[nH]ccc21 (single isomer, unassigned) [Example 3-103, (1S,2S)-2-[3-({4-[(1R or 1S)-1-amino-2,2,2-trifluoroethyl]phenyl}amino)-4-oxo-4,5-dihydro-1H-pyrazolo[4,3-c]pyridin-1-yl]cyclopentanecarbonitrile] | 0.28 nM | 0.7 nM
CC1c2cc(Nc3nn([C@H]4CCCC[C@@H]4C#N)c4cc[nH]c(=O)c34)ccc2S(=O)(=O)N1C (single isomer, unassigned) [Example 3-126, (1S,2S)-2-(3-(((R or S)-2,3-dimethyl-1,1-dioxido-2,3-dihydrobenzo[d]isothiazol-5-yl)amino)-4-oxo-4,5-dihydro-1H-pyrazolo[4,3-c]pyridin-1-yl)cyclohexanecarbonitrile] | 0.077 nM | 2.5 nM
N#C[C@H]1CCCC[C@@H]1n1nc(Nc2ccc(S(=O)(=O)NC3CCCCC3)cc2)c2c(=O)[nH]ccc21 [Example 3-22, 4-({1-[(1S,2S)-2-cyanocyclohexyl]-4-oxo-4,5-dihydro-1H-pyrazolo[4,3-c]pyridin-3-yl}amino)-N-cyclohexylbenzenesulfonamide] | 0.4 nM | 1.2 nM
N#C[C@H]1CCCC[C@@H]1n1nc(Nc2ccc(C3CCCN3)cc2)c2c(=O)[nH]ccc21 (single isomer, unassigned) [Example 3-71, (1S,2S)-2-[4-oxo-3-({4-[(2S or 2R)-pyrrolidin-2-yl]phenyl}amino)-4,5-dihydro-1H-pyrazolo[4,3-c]pyridin-1-yl]cyclohexanecarbonitrile] | 0.27 nM | 0.54 nM
N#C[C@H]1CCC[C@@H]1n1nc(Nc2ccc3c(c2)CN(CC(F)(F)F)C3=O)c2c(=O)[nH]ccc21 [Example 3-97, (1S,2S)-2-(4-oxo-3-{[1-oxo-2-(2,2,2-trifluoroethyl)-2,3-dihydro-1H-isoindol-5-yl]amino}-4,5-dihydro-1H-pyrazolo[4,3-c]pyridin-1-yl)cyclopentanecarbonitrile] | 0.082 nM | 0.44 nM
CS(=O)(=O)c1ccc(Nc2nn([C@H]3CCCC[C@@H]3C#N)c3cc[nH]c(=O)c23)cc1 [Example 3-5, (1S,2S)-2-(3-{[4-(methylsulfonyl)phenyl]amino}-4-oxo-4,5-dihydro-1H-pyrazolo[4,3-c]pyridin-1-yl)cyclohexanecarbonitrile] | 0.12 nM | 0.83 nM
N#C[C@H]1CCCC[C@@H]1n1nc(Nc2ccc(Cn3nccn3)cc2)c2c(=O)[nH]ccc21 [Example 3-45, (1S,2S)-2-(4-oxo-3-{[4-(2H-1,2,3-triazol-2-ylmethyl)phenyl]amino}-4,5-dihydro-1H-pyrazolo[4,3-c]pyridin-1-yl)cyclohexanecarbonitrile] | 0.37 nM | 0.42 nM
N#C[C@@H]1CCC[C@H]1n1nc(Nc2ccnc(F)c2)c2c(=O)[nH]ccc21 [Example 3-93, (1R,2R)-2-{3-[(2-fluoropyridin-4-yl)amino]-4-oxo-4,5-dihydro-1H-pyrazolo[4,3-c]pyridin-1-yl}cyclopentanecarbonitrile] | 12 nM | 48 nM
Cn1ccc(NC(=O)Cc2cccc(Nc3nn([C@@H]4CCCC[C@H]4C#N)c4cc[nH]c(=O)c34)c2)n1 [Example 3-15, 2-[3-({1-[(1R,2R)-2-cyanocyclohexyl]-4-oxo-4,5-dihydro-1H-pyrazolo[4,3-c]pyridin-3-yl}amino)phenyl]-N-(1-methyl-1H-pyrazol-3-yl)acetamide] | 14 nM | 30 nM
N#C[C@H]1CCCC[C@@H]1n1nc(Nc2ccc3c(c2)CCS3(=O)=O)c2c(=O)[nH]ccc21 [Example 3-59, (1S,2S)-2-{3-[(1,1-dioxido-2,3-dihydro-1-benzothiophen-5-yl)amino]-4-oxo-4,5-dihydro-1H-pyrazolo[4,3-c]pyridin-1-yl}cyclohexanecarbonitrile] | 0.062 nM | 0.71 nM
CN(C)Cc1cccc(Nc2nn([C@H]3CCCC[C@@H]3C#N)c3cc[nH]c(=O)c23)c1 [Example 3-34, (1S,2S)-2-[3-({3-[(dimethylamino)methyl]phenyl}amino)-4-oxo-4,5-dihydro-1H-pyrazolo[4,3-c]pyridin-1-yl]cyclohexanecarbonitrile] | 1.1 nM | 1.1 nM
N#C[C@H]1CCCC[C@@H]1n1nc(Nc2ccc3c(c2)CN(C(=O)c2cnc(N4CCCCC4)cn2)C3)c2c(=O)[nH]ccc21 [Example 3-158, (1S,2S)-2-[4-oxo-3-({2-[(5-piperidin-1-ylpyrazin-2-yl)carbonyl]-2,3-dihydro-1H-isoindol-5-yl}amino)-4,5-dihydro-1H-pyrazolo[4,3-c]pyridin-1-yl]cyclohexanecarbonitrile] | 0.98 nM | 1.5 nM

The remaining lines, values ahead:

IC50 (JAK1) | IC50 (JAK2) | Structure (SMILES)
0.32 nM | 1.1 nM | N#C[C@H]1CCCC[C@@H]1n1nc(Nc2ccc(C3(O)COC3)cc2)c2c(=O)[nH]ccc21 [Example 15-9, (1S,2S)-2-(3-{[4-(3-hydroxyoxetan-3-yl)phenyl]amino}-4-oxo-4,5-dihydro-1H-pyrazolo[4,3-c]pyridin-1-yl)cyclohexanecarbonitrile]
0.24 nM | 4 nM | CC1(O)CN([C@H]2CC[C@H](n3nc(Nc4ccc(Cl)cc4)c4c(=O)[nH]ccc43)[C@@H](C#N)C2)C1 [Example 5-22, (1S,2S,5S)-2-(3-((4-chlorophenyl)amino)-4-oxo-4,5-dihydro-1H-pyrazolo[4,3-c]pyridin-1-yl)-5-(3-hydroxy-3-methylazetidin-1-yl)cyclohexanecarbonitrile]
0.26 nM | 3.8 nM | CC(C)OC(=O)c1ccc2cc(Nc3nn([C@H]4CCCC[C@@H]4C#N)c4cc[nH]c(=O)c34)ccc2n1 [Example 15-16, isopropyl 6-((1-((1S,2S)-2-cyanocyclohexyl)-4-oxo-4,5-dihydro-1H-pyrazolo[4,3-c]pyridin-3-yl)amino)quinoline-2-carboxylate]
25 nM | 660 nM | N#C[C@@H]1C[C@@H](N2CCC2)CC[C@H]1n1nc(Nc2ccc(C(F)(F)F)cc2)c2c(=O)[nH]ccc21 [Example 5-9, (1R,2R,5S)-5-(azetidin-1-yl)-2-(4-oxo-3-((4-(trifluoromethyl)phenyl)amino)-4,5-dihydro-1H-pyrazolo[4,3-c]pyridin-1-yl)cyclohexanecarbonitrile]
3.7 nM | 233 nM | C[C@H](N[C@@H]1CC[C@H](n2nc(Nc3ccc(OC(F)(F)F)cc3)c3c(=O)[nH]ccc32)[C@@H](C#N)C1)C1CC1 [Example 5-27, (1S,2S,5R)-5-(((S)-1-cyclopropylethyl)amino)-2-(4-oxo-3-((4-(trifluoromethoxy)phenyl)amino)-4,5-dihydro-1H-pyrazolo[4,3-c]pyridin-1-yl)cyclohexanecarbonitrile]
7.8 nM | 525 nM | C[C@H](NC1CCC(n2nc(Nc3ccc(Cl)cc3)c3c(=O)[nH]ccc32)C(C#N)C1)C1CC1 (stereo in doubt) [Example 4-4, (1S,2S,5S)-2-(3-((4-Chlorophenyl)amino)-4-oxo-4,5-dihydro-1H-pyrazolo[4,3-c]pyridin-1-yl)-5-(((S)-1-cyclopropylethyl)amino)cyclohexanecarbonitrile]
0.88 nM | 31 nM | N#C[C@H]1C[C@H](N2CCC2)CC[C@@H]1n1nc(Nc2ccc(OC(F)(F)F)cc2)c2c(=O)[nH]ccc21 [Example 5-23, (1S,2S,5R)-5-(azetidin-1-yl)-2-(4-oxo-3-((4-(trifluoromethoxy)phenyl)amino)-4,5-dihydro-1H-pyrazolo[4,3-c]pyridin-1-yl)cyclohexanecarbonitrile]
1.4 nM | 60 nM | N#C[C@H]1C[C@H](N2CCC2)CC[C@@H]1n1nc(Nc2ccc(C(F)(F)F)cc2)c2c(=O)[nH]ccc21 [Example 5-7, (1S,2S,5R)-5-(azetidin-1-yl)-2-(4-oxo-3-((4-(trifluoromethyl)phenyl)amino)-4,5-dihydro-1H-pyrazolo[4,3-c]pyridin-1-yl)cyclohexanecarbonitrile]
0.36 nM | 0.32 nM | N#C[C@H]1CCCC[C@@H]1n1nc(Nc2ccc(C3(N)CCC3)cc2)c2c(=O)[nH]ccc21 [Example 12-2, (1S,2S)-2-(3-((4-(1-aminocyclobutyl)phenyl)amino)-4-oxo-4,5-dihydro-1H-pyrazolo[4,3-c]pyridin-1-yl)cyclohexanecarbonitrile]
